Assay results published in patent publication US20150284360A1, “AMIDE DERIVATIVES OF ANILINE-RELATED COMPOUNDS AND COMPOSITIONS THEREOF” (C&C BIOPHARMA, LLC, priority 2014, published 2015).
Values after ≈ are worked out from the molar mass of the structure shown.

How the values were obtained:
[1] = Solubility of a compound in water; format: physicochemical; settings: compound added until saturated
Description: Solubility of a compound was obtained by adding the compound into water of known volume (e.g. 1 mL) until saturated, measuring the amount of the compound added, and obtaining the solubility of the compound in water (mg/mL) (Table 9).

[2] = In vivo conversion of prodrug Lys-CC30.2HCl to parent drug CC30 in a rat after intravenous administration (plasma, HPLC-MS); parameters: species or system Sprague-Dawley rat; settings: for HPLC-MS Peak Area of Parent drug, CC30 in the rat: rat plasma after Lys-CC30.2HCl 2 mg/kg intravenous
Description: A Male Sprague-Dawley rat weighing 200-220 g was used to study the pharmacokinetics of the prodrug Lys-CC30.2HCl. Food was prohibited for 12 hours before the experiment, but water was freely available. Blood samples (0.2 ml) were collected through orbital venous plexus blood into heparinized 1.5 ml polyethene tubes at 0, 2, 5, 10, 15, 20, 30, 45 and 60 minute time points after the intravenous administration of Lys-CC30.2HCl (2 mg/kg). The samples were immediately centrifuged at 3000 g for 10 minutes. The plasma obtained (100 μl) was stored at −20° C. until analyzed. Plasma Lys-CC30.2HCl and parent drug CC30 concentrations in the collected blood samples were analyzed by HPLC-MS.
The parent drug was detected in the rat for at least 60 minutes, whereas the prodrug was no longer detected after 20 minutes (Table 11)(FIG. 10B).

[3] = In vitro conversion of prodrug Lys-CC30.2HCl to parent drug CC30 in rat plasma (HPLC-MS); format: in vitro ADME; settings: formed from Lys-CC30•2HCl in rat plasma
Description: Lys-CC30.2HCl (2.53 mg) was dissolved in 200 μl of water to obtain an aqueous solution concentration of 12.6 mg/ml. 4 μl of the Lys-CC30.2HCl solution was thoroughly mixed with 100 μl of rat plasma. This mixture was divided into 10 aliquots (10 μl) placed in 1.5 ml tubes. One tube was placed on ice and was used as the 0 time point. The other 9 samples were placed in an incubator at 37° C. At 5, 10, 30, 60, 120, and 240 minutes, a tube was taken out from incubation and placed on ice to stop or slow down the reaction. The samples were diluted with water (50-fold), mixed, and pelleted by centrifugation at 4° C. and 14,000 rpm for 5 min. The supernatant (˜200-300 μl) was used for HPLC-MS analysis. The % conversion was calculated by dividing the peak area of the parent drug by the peak area of the prodrug at time 0, and then multiplying by 100 (Table 10).
After 60 minutes of incubation, almost half (44.7%) of the Lys-CC30.2HCl prodrug converted to CC30 (Table 10).

[4] = Cyclization in simulated gastric fluid (SGF), acidic condition; format: physicochemical; settings: SGF pH=1.3 with pepsin, 37° C., 4 hours
Description: Simulated gastric fluid (SGF) was prepared by thoroughly mixing diluted hydrochloric acid (16.4 ml), water (800 ml), and 10 g of pepsin together, and then bring the volume up to 1000 ml with water (pH=1.3). Diluted hydrochloric acid was prepared by mixing 234 ml of concentrated hydrochloric acid with water to a final volume of 1000 ml. Lys-CC30.2HCl (2.53 mg) or CC30 were separately dissolved in 200 μl of water to obtain an aqueous solution concentration of 12.6 mg/ml. 4 μl of the Lys-CC30.2HCl solution and the CC30 solution were thoroughly mixed with 1 ml of SGF in separate tubes. The mixtures were placed in an incubator at 37° C. for 4 hours. The samples were diluted with water 50-fold, mixed, and pelleted by centrifugation at 4° C. and 14,000 rpm for 5 min. The supernatants (˜200-300 μl) were used for HPLC-MS analysis.

| SMILES | Solubility in Water [1] | other results |
| --- | --- | --- |
| Cl.Cl.N=C(N)NCCC[C@H](N)C(=O)Nc1ccccc1NC(=O)CCCCCC(=O)Nc1cccc(Br)c1 [Arg-CC30•HCl] | 100 mg/mL |  |
| Cl.NC(=O)C[C@H](N)C(=O)Nc1ccccc1NC(=O)CCCCCC(=O)Nc1cccc(Br)c1 [Asn-CC30•HCl] | 30 mg/mL |  |
| N[C@@H](CCC(=O)[O-])C(=O)Nc1ccccc1NC(=O)CCCCCC(=O)Nc1cccc(Br)c1.[Na+] [CC30-Glu•Na] | >100 mg/mL |  |
| O=C([O-])CCC(=O)Nc1ccccc1NC(=O)CCCCCC(=O)Nc1cccc(Br)c1.[Na+] [CC30-Suc-ONa] | 2 mg/mL |  |
| Nc1ccccc1NC(=O)CCCCCC(=O)Nc1cccc(Br)c1 [CC30] | 0.006 mg/mL (≈ 14.8 µM) | Time for which the parent drug was detected in the rat ([2]; after Lys-CC30.2HCl 2 mg/kg intravenous): at least 60 minutes; HPLC-MS Peak Area of Parent drug, CC30 in the rat ([2]; 0 min): 4792335; HPLC-MS Peak Area of Parent drug, CC30 in the rat ([2]; 2 min): 2994581; HPLC-MS Peak Area of Parent drug, CC30 in the rat ([2]; 5 min): 2162228; HPLC-MS Peak Area of Parent drug, CC30 in the rat ([2]; 10 min): 1225981; HPLC-MS Peak Area of Parent drug, CC30 in the rat ([2]; 15 min): 712348; HPLC-MS Peak Area of Parent drug, CC30 in the rat ([2]; 20 min): 425079; HPLC-MS Peak Area of Parent drug, CC30 in the rat ([2]; 30 min): 232663; HPLC-MS Peak Area of Parent drug, CC30 in the rat ([2]; 45 min): 199152; HPLC-MS Peak Area of Parent drug, CC30 in the rat ([2]; 60 min): 44686; HPLC-MS Peak Area of Parent Drug, CC30 ([3]; 37° C., 5 min): 880074; HPLC-MS Peak Area of Parent Drug, CC30 ([3]; 37° C., 10 min): 1131442; HPLC-MS Peak Area of Parent Drug, CC30 ([3]; 37° C., 30 min): 2039869; HPLC-MS Peak Area of Parent Drug, CC30 ([3]; 37° C., 60 min): 2762843; HPLC-MS Peak Area of Parent Drug, CC30 ([3]; 37° C., 120 min): 4280514; HPLC-MS Peak Area of Parent Drug, CC30 ([3]; 37° C., 240 min): 4438887; HPLC-MS Peak Area of Parent Drug, CC30 ([3]; time 0 min (on ice)): 617276; Fraction that formed an inactive cyclized product [4]: 5% |
| Cl.NCC(=O)Nc1ccccc1NC(=O)CCCCCC(=O)Nc1cccc(Br)c1 [Gly-CC30•HCl] | 10 mg/mL |  |
| Cl.NCC(=O)Nc1ccccc1NC(=O)c1ccc(CNc2nccc(-c3cccnc3)n2)cc1 [Gly-MGCD0103•HCl] | >100 mg/mL |  |
| Cl.NCC(=O)Nc1ccccc1NC(=O)c1ccc(CNC(=O)OCc2cccnc2)cc1 [Gly-MS-275•HCl] | 68 mg/mL |  |
| Cl.NCC(=O)Nc1ccccc1NC(=O)CCCCCC(=O)Nc1ccccc1 [Gly-PAOA•HCl] | 11 mg/mL |  |
| Cl.Cl.N[C@@H](Cc1c[nH]cn1)C(=O)Nc1ccccc1NC(=O)CCCCCC(=O)Nc1cccc(Br)c1 [His-CC30•2HCl] | 130 mg/mL |  |
| CC(C)C[C@H](N)C(=O)Nc1ccccc1NC(=O)CCCCCC(=O)Nc1cccc(Br)c1.Cl [Leu-CC30•HCl] | 50 mg/mL |  |
| Cl.Cl.NCCCCC(N)C(=O)Nc1ccccc1NC(=O)c1ccc(CNc2nccc(-c3cccnc3)n2)cc1 (centres unmarked) [Lys-MGCD0103•2HCl] | >100 mg/mL |  |
| Cl.Cl.NCCCC[C@H](N)C(=O)Nc1ccccc1NC(=O)c1ccc(CNC(=O)OCc2cccnc2)cc1 [Lys-MS-275•2HCl] | >100 mg/mL |  |
| Cl.Cl.NCCCC[C@H](N)C(=O)Nc1ccccc1NC(=O)CCCCCC(=O)Nc1ccccc1 [Lys-PAOA•2HCl] | >100 mg/mL |  |
| Nc1ccccc1NC(=O)c1ccc(CNc2nccc(-c3cccnc3)n2)cc1 [MGCD0103, Mocetinostat, reference compound] | <1 mg/mL |  |
| Nc1ccccc1NC(=O)c1ccc(CNC(=O)OCc2cccnc2)cc1 [MS-275, Entinostat, reference compound] | 0.016 mg/mL (≈ 42.5 µM) |  |
| Cl.Cl.NCCC[C@H](N)C(=O)Nc1ccccc1NC(=O)CCCCCC(=O)Nc1cccc(Br)c1 [Orn-CC30•HCl] | 720 mg/mL |  |
| Nc1ccccc1NC(=O)CCCCCC(=O)Nc1ccccc1 [PAOA, reference compound] | .033 mg/mL (≈ 101 µM) |  |
| Cl.N[C@@H](Cc1ccccc1)C(=O)Nc1ccccc1NC(=O)CCCCCC(=O)Nc1cccc(Br)c1 [Phe-CC30•HCl] | 10 mg/mL |  |
| Cl.N[C@@H](CO)C(=O)Nc1ccccc1NC(=O)CCCCCC(=O)Nc1cccc(Br)c1 [Ser-CC30•HCl] | 10 mg/mL |  |
| Cl.NC(CO)C(=O)Nc1ccccc1NC(=O)c1ccc(CNc2nccc(-c3cccnc3)n2)cc1 (centres unmarked) [Ser-MGCD0103•HCl] | >100 mg/mL |  |
| Cl.NC(CO)C(=O)Nc1ccccc1NC(=O)c1ccc(CNC(=O)OCc2cccnc2)cc1 (centres unmarked) [Ser-MS-275•HCl] | >100 mg/mL |  |
| C[C@@H](O)[C@H](N)C(=O)Nc1ccccc1NC(=O)CCCCCC(=O)Nc1cccc(Br)c1.Cl [Thr-CC30•HCl] | 1350 mg/mL |  |
| C[C@@H](O)[C@H](N)C(=O)Nc1ccccc1NC(=O)c1ccc(CNc2nccc(-c3cccnc3)n2)cc1.Cl [Thr-MGCD0103•HCl] | >100 mg/mL |  |
| CC(O)C(N)C(=O)Nc1ccccc1NC(=O)c1ccc(CNC(=O)OCc2cccnc2)cc1.Cl (centres unmarked) [Thr-MS-275•HCl] | >100 mg/mL |  |
| CC(C)[C@H](N)C(=O)Nc1ccccc1NC(=O)CCCCCC(=O)Nc1cccc(Br)c1.Cl [Val-CC30•HCl] | 170 mg/mL |  |
| CC(C)C(N)C(=O)Nc1ccccc1NC(=O)c1ccc(CNc2nccc(-c3cccnc3)n2)cc1.Cl (centres unmarked) [Val-MGCD0103•HCl] | >100 mg/mL |  |
| CC(C)[C@H](N)C(=O)Nc1ccccc1NC(=O)c1ccc(CNC(=O)OCc2cccnc2)cc1.Cl [Val-MS-275•HCl] | >100 mg/mL |  |
| CC(C)[C@H](N)C(=O)Nc1ccccc1NC(=O)CCCCCC(=O)Nc1ccccc1.Cl [Val-PAOA•HCl] | >100 mg/mL |  |
